Assay results published in patent US20210330611A1, “THERAPY FOR NEUROLOGICAL DISEASES/DISORDERS” (priority 2020, published 2021).
Counter-ions that a name gives are not always drawn. Like-named read-outs stand apart in the source and are kept apart here.

Tests used:
[1] = system: fibrin-induced microglia activation; experiment: Image-based assay of fibrin-induced microglia activation (HTS and dose response); type: cell-based, rat; details: for inhibition at 10 µM: Rattus norvegicus, Microglia, read-out: Fibrin % inhibition
[2] = system: LPS-induced microglia activation; experiment: Image-based assay of LPS-induced microglia activation (HTS and dose response); type: cell-based, rat
[3] = system: fibrin- and LPS-induced microglia activation; experiment: cells; type: cell-based, rat
primary rat microglia [4] = system: primary rat microglia;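 as to Fibrin % cell toxicity: share of dead cells sized under 150 µm2 at 10 µM in fibrin-stimulated microglia HTS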
primary rat microglia [5] = system: primary rat microglia; remark: listed apart in the source;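 as to Fibrin % cell toxicity: share of dead cells sized under 150 µm2 at 10 µM in fibrin-stimulated microglia HTS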
[6] = primary microglia HTS, fibrin stimulation, cell size >800 μm2 as marker of activation
[7] = Rattus norvegicus, Microglia, 48 h; read-out: LPS % inhibition
[8] = classification by fibrin and LPS inhibition in HTS
[9] = Rattus norvegicus, Microglia, 48 h, read-out: LPS % inhibition
[10] = primary microglia HTS, fibrin stimulation, activation = cell size >800 μm2
[11] = quadrant by fibrin and LPS inhibition in HTS of 1907 compounds
[12] = primary microglia HTS, 10 μM, fibrin-stimulated, cell size >800 μm^2 as marker of activation
[13] = Rattus norvegicus, Microglia, primary microglia HTS, 10 μM, LPS-stimulated, cell size >800 μm^2 as marker of activation; read-out: LPS % inhibition
[14] = HTS of 1907 compounds, quadrant by fibrin and LPS inhibition
[15] = Rattus norvegicus, Microglia, 48 h, primary microglia HTS, LPS stimulation, activation = cell size >800 μm2; read-out: LPS % inhibition
[16] = Rattus norvegicus, Microglia, read-out: LPS % inhibition
[17] = primary microglia HTS, fibrin stimulation, compounds at 10 μM
[18] = Rattus norvegicus, Microglia, primary microglia HTS, LPS stimulation, compounds at 10 μM; read-out: LPS % inhibition
[19] = quadrant by fibrin and LPS inhibition, HTS at 10 μM
[20] = classification by fibrin and LPS inhibition, HTS at 10 μM
[21] = primary microglia HTS, fibrin stimulation, increased cell size (>800 μm^2) as marker of activation
[22] = Rattus norvegicus, Microglia, 48 h, primary microglia HTS, LPS stimulation; increased cell size (>800 μm^2) as marker of activation; read-out: LPS % inhibition

Compound | Fibrin % cell toxicity (primary rat microglia [4]; rat) [%] | LPS % cell toxicity (primary rat microglia [5]; rat) [%] | Quadrant (FIG. 5b) [3] | inhibition at 10 µM [1] [%] | other results
O=C(C1CCCCC1)N1CC(=O)N2CCc3ccccc3C2C1 (centres unmarked) [Praziquantel] | 1 | 0 |  |  | inhibition at 10 µM [1, 6]: -3%; inhibition at 10 µM [2, 7]: 21%; Quadrant (FIG. 5b) [3, 8]: Q4
Oc1ccc2c3c1O[C@H]1[C@@H](O)CC[C@@]4(O)[C@@H](C2)N(CC2CCC2)CC[C@]314 [Nalbuphine] | 1 | 0 | Q4 |  | Fibrin % inhibition [1]: −8%; inhibition at 10 µM [2, 9]: 16%
NC(=O)CC[C@H](N)C(=O)O [L-glutamine, Glutamine (I)] |  |  |  |  | Fibrin % inhibition [1, 10]: 4%; LPS % inhibition ([2]; primary microglia HTS, LPS stimulation, activation = cell size >800 μm2): 14%; Quadrant (FIG. 5b) [3, 11]: Q4; Fibrin % cell toxicity (primary rat microglia [4]): 0%; LPS % cell toxicity (primary rat microglia [5]): 0%
CC(O)C(=O)O (centres unmarked) [Lactic Acid] | 1 | 1 | Q4 | 0 | inhibition at 10 µM [2, 9]: 14%
CCC(COC(=O)c1cc(OC)c(OC)c(OC)c1)(c1ccccc1)N(C)C (centres unmarked) [Trimebutine] | 1 | 0 |  |  | inhibition at 10 µM [1, 12]: -11%; inhibition at 10 µM [2, 13]: 13%; Quadrant (FIG. 5b) [3, 14]: Q4
Cl[C@H]1[C@H](Cl)[C@@H](Cl)[C@@H](Cl)[C@H](Cl)[C@H]1Cl [Lindane] | 0 | 0 |  |  | inhibition at 10 µM [1, 10]: 42%; inhibition at 10 µM [2, 15]: 11%; Quadrant (FIG. 5b) [3, 11]: Q4
CC1(C)C[C@@H]1C(=O)N/C(=C\CCCCSC[C@H](N)C(=O)O)C(=O)O [Cilastatin] | 1 | 0 | Q4 | -6 | inhibition at 10 µM [2, 16]: 2%
CCN(CC)CCNC(=O)c1c(C)[nH]c(/C=C2\C(=O)Nc3ccc(F)cc32)c1C [Sunitinib] | 75 | 27 |  |  | inhibition at 10 µM [1, 17]: 106%; inhibition at 10 µM [2, 18]: 101%; Quadrant (FIG. 5b) [3, 19]: Q2
CC[C@@]1(O)C(=O)OCc2c1cc1n(c2=O)Cc2cc3c(CN(C)C)c(O)ccc3nc2-1 [Topotecan, Topotecan Hydrochloride] |  |  |  |  | Fibrin % inhibition [1, 17]: 112%; LPS % inhibition ([2]; primary microglia HTS, LPS stimulation, compounds at 10 μM): 112%; Quadrant (FIG. 5b) [3, 19]: Q2; Fibrin % cell toxicity (primary rat microglia [4]): 63%; LPS % cell toxicity (primary rat microglia [5]): 40%
CC(=O)C1C(=O)C=C(C)OC1=O (centres unmarked) [Dehydroacetic Acid] | 0 | 0 |  |  | inhibition at 10 µM [1, 17]: -36%; inhibition at 10 µM [2, 18]: 2%; Quadrant (FIG. 5b) [3, 20]: Q4
O=C(O)CN1C(=O)c2cccc3cccc(c23)C1=O [Alrestatin] | 1 | 0 | Q4 | 11 | inhibition at 10 µM [2, 16]: 12%
Nc1ccn([C@H]2CC[C@@H](CO)O2)c(=O)n1 [Zalcitabine] | 0 | 0 |  |  | inhibition at 10 µM [1, 12]: -10%; inhibition at 10 µM [2, 13]: 11%; Quadrant (FIG. 5b) [3, 14]: Q4
CCCCC1C(=O)N(c2ccccc2)N(c2ccccc2)C1=O [Phenylbutazone] | 0 | 0 |  |  | inhibition at 10 µM [1, 6]: -23%; inhibition at 10 µM [2, 7]: 5%; Quadrant (FIG. 5b) [3, 8]: Q4
CCCC(=O)Nc1ccc(OCC(O)CNC(C)C)c(C(C)=O)c1 (centres unmarked) [Acebutolol] | 1 | 0 |  |  | inhibition at 10 µM [1, 17]: -11%; inhibition at 10 µM [2, 18]: 19%; Quadrant (FIG. 5b) [3, 19]: Q4
O=C1CCC(N2C(=O)c3ccccc3C2=O)C(=O)N1 (centres unmarked) [Thalidomide] | 0 | 1 |  |  | inhibition at 10 µM [1, 12]: 8%; inhibition at 10 µM [2, 13]: 23%; Quadrant (FIG. 5b) [3, 14]: Q4
COC(=O)[C@H](c1ccccc1Cl)N1CCc2sccc2C1 [Clopidogrel] | 1 | 0 | Q4 | -24 | inhibition at 10 µM [2, 16]: 7%
NC(CO)C(=O)NNCc1ccc(O)c(O)c1O (centres unmarked) [Benserazide] | 0 | 0 |  |  | inhibition at 10 µM [1, 17]: -16%; inhibition at 10 µM [2, 18]: 8%; Quadrant (FIG. 5b) [3, 19]: Q4

Compound | Fibrin % cell toxicity (primary rat microglia [4]; rat) [%] | LPS % cell toxicity (primary rat microglia [5]; rat) [%] | Quadrant (FIG. 5b) [3] | inhibition at 10 µM [1] [%] | other results
CC(C)(C#N)c1cc(Cn2cncn2)cc(C(C)(C)C#N)c1 [Anastrozole] | 1 | 0 |  |  | inhibition at 10 µM [1, 17]: 31%; inhibition at 10 µM [2, 18]: 16%; Quadrant (FIG. 5b) [3, 19]: Q4
Acriflavinium Hydrochloride |  |  |  |  | Fibrin % inhibition [1, 21]: 110%; LPS % inhibition ([2]; primary microglia HTS, LPS stimulation; increased cell size (>800 μm^2) as marker of activation): 129%; Quadrant (FIG. 5b) [3, 11]: Q2; Fibrin % cell toxicity (primary rat microglia [4]): 57%; LPS % cell toxicity (primary rat microglia [5]): 63%
N[C@@H](CCC(=O)N[C@@H](CS)C(=O)NCC(=O)O)C(=O)O [Glutathione] | 1 | 0 | Q4 | -5 | inhibition at 10 µM [2, 9]: 13%
CC(C)=CC1C(C(=O)OCc2cccc(Oc3ccccc3)c2)C1(C)C (centres unmarked) [Phenothrin] | 0 | 0 |  |  | inhibition at 10 µM [1, 6]: -50%; inhibition at 10 µM [2, 7]: 11%; Quadrant (FIG. 5b) [3, 8]: Q4
Cc1nc2n(c(=O)c1CCN1CCC(c3noc4cc(F)ccc34)CC1)CCCC2O (centres unmarked) [Paliperidone] | 1 | 0 |  |  | inhibition at 10 µM [1, 21]: -26%; inhibition at 10 µM [2, 22]: 9%; Quadrant (FIG. 5b) [3, 11]: Q4
Cc1ncc([N+](=O)[O-])n1CCO [Metronidazole] | 0 | 1 |  |  | inhibition at 10 µM [1, 21]: -12%; inhibition at 10 µM [2, 22]: 15%; Quadrant (FIG. 5b) [3, 11]: Q4
CNCC[C@H](Oc1cccc2ccccc12)c1cccs1 [Duloxetine] | 0 | 0 | Q4 | 22 | inhibition at 10 µM [2, 16]: 24%
CC1CC(OC(=O)c2ccccc2O)CC(C)(C)C1 (centres unmarked) [Homosalate] | 1 | 1 |  |  | inhibition at 10 µM [1, 10]: -3%; inhibition at 10 µM [2, 15]: 18%; Quadrant (FIG. 5b) [3, 11]: Q4
Cn1cc[nH]c1=S [Methimazole] | 0 | 0 | Q4 | -29 | inhibition at 10 µM [2, 9]: 12%
O=C(Nc1ccc(C(=O)O)c(O)c1)c1ccccc1 [Benzoylpas] | 4 | 2 | Q2 | 107 | inhibition at 10 µM [2, 9]: 87%
CCCCOCCOCCOCc1cc2c(cc1CCC)OCO2 [Piperonyl Butoxide] | 0 | 0 | Q4 | 0 | inhibition at 10 µM [2, 9]: 12%
NC[C@H]1CC[C@H](C(=O)O)CC1 [Tranexamic Acid] | 1 | 0 | Q4 | -4 | inhibition at 10 µM [2, 16]: 13%
COC1=CC(=O)C[C@@H](C)[C@]12Oc1c(Cl)c(OC)cc(OC)c1C2=O [Griseofulvin] | 1 | 0 |  |  | inhibition at 10 µM [1, 10]: 9%; inhibition at 10 µM [2, 15]: 13%; Quadrant (FIG. 5b) [3, 11]: Q4
COc1ccc([C@@H]2Sc3ccccc3N(CCN(C)C)C(=O)[C@@H]2OC(C)=O)cc1 [Diltiazem] | 1 | 0 |  |  | Fibrin % inhibition ([1]; primary microglia HTS, fibrin stimulation, compounds at 10 μM, 10 µM): 21%; inhibition at 10 µM [2, 18]: 9%; Quadrant (FIG. 5b) [3, 20]: Q4
CC[C@@H](CO)NCCN[C@@H](CC)CO [Ethambutol] | 1 | 1 |  |  | inhibition at 10 µM [1, 17]: 12%; inhibition at 10 µM [2, 18]: 14%; Quadrant (FIG. 5b) [3, 20]: Q4
O=c1cccc2n1C[C@@H]1CNC[C@H]2C1 [Cytisine] | 1 | 1 | Q4 | 23 | inhibition at 10 µM [2, 16]: 16%
Nc1nc(Cl)nc2c1ncn2[C@H]1C[C@H](O)[C@@H](CO)O1 [Cladribine] | 1 | 0 |  |  | inhibition at 10 µM ([1]; primary HTS, 10 μM, fibrin-stimulated primary microglia): -23%; inhibition at 10 µM ([2]; Rattus norvegicus, Microglia, primary HTS, 10 μM, LPS-stimulated primary microglia; read-out: LPS % inhibition): 6%; Quadrant (FIG. 5b) ([3]; primary HTS, 10 μM): Q4
